Results as given in patent publication US10669272B2, “Substituted naphthyridinone compounds useful as T cell activators” (BRISTOL-MYERS SQUIBB COMPANY, priority 2018, dated 2020).
Where two headings read alike, the source gives them in different places.

Key:
[1] = target: T1, human DGKα (Homo sapiens, UniProt P23743); assay: DGKα LIPGLO assay (extruded liposome substrate), in vitro DGK inhibition; assay type: biochemical; settings: read-out: DGKa LIPGLO IC50
T1 construct: TVMV protease cleavage site (C); Hexa-His (C); made in house; host or cells: Sf9 insect cells (baculovirus, Bac-to-Bac)
T1 sequence (P23743 with tags, fused parts or gaps): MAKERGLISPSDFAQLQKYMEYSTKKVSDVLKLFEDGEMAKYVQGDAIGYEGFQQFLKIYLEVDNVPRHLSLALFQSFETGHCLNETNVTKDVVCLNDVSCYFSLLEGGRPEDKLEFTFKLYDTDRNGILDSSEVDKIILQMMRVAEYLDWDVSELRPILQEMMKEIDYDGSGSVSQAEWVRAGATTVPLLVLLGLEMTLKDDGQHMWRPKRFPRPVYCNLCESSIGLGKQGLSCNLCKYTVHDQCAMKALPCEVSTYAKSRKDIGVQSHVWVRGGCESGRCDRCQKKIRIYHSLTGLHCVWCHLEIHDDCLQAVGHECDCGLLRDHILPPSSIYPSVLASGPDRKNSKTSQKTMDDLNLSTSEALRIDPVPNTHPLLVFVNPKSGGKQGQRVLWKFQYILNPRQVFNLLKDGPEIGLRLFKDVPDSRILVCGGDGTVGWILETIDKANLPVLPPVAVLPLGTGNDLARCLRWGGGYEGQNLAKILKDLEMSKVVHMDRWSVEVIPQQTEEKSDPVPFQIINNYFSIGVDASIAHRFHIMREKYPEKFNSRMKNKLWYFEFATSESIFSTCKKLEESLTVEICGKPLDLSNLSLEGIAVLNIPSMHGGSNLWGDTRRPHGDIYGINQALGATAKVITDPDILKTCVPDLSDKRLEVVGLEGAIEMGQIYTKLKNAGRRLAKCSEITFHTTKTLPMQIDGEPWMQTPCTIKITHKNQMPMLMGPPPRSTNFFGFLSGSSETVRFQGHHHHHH

[2] = target: T2, human DGKζ (Homo sapiens, UniProt Q13574); assay: DGKζ LIPGLO assay (extruded liposome substrate), in vitro DGK inhibition; assay type: biochemical; settings: read-out: DGKz LIPGLO IC50
T2 construct: TVMV protease cleavage site (C); Hexa-His (C); made in house; host or cells: Sf9 insect cells (baculovirus, Bac-to-Bac)
T2 sequence (Q13574 with tags, fused parts or gaps isoform Q13574-4): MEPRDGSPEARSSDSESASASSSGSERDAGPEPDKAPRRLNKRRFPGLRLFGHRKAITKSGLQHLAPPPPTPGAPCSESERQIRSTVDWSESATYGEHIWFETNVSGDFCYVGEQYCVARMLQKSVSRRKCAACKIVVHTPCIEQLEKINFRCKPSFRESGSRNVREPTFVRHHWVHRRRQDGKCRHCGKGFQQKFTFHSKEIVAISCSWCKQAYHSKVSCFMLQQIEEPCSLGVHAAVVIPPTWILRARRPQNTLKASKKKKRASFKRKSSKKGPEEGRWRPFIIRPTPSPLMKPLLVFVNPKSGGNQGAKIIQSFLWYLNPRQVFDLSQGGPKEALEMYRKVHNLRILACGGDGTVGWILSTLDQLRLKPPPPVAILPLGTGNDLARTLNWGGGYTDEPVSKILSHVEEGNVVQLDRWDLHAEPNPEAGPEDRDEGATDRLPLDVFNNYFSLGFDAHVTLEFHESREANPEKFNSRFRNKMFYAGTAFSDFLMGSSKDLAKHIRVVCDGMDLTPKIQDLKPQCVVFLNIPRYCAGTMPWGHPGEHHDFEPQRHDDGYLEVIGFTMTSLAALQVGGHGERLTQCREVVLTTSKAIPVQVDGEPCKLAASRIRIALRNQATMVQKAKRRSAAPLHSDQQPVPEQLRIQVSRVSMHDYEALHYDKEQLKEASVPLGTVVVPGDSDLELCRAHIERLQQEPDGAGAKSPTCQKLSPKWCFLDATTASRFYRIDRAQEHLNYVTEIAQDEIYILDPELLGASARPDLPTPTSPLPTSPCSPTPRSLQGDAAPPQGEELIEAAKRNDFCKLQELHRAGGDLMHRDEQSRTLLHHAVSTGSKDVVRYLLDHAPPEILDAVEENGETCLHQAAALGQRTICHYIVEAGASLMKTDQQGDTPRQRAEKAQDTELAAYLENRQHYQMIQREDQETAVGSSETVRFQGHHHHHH

[3] = tested on: naïve human CD8 T cells; assay: Human CD8 T cells IFN-γ assay; assay type: cell-based; settings: read-out: HuCD8 INFG Normalized EC50;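 further: Naïve human CD8 T cells stimulated with plate-bound anti-CD3 and soluble anti-CD28, IFN-γ in supernatant quantified by AlphaLISA and converted to pg/mL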
Protocol: Human CD8 T Cells IFN-γ Assay
Frozen naïve human CD8 T cells were thawed in AIM-V media, incubated for 2 h in 37° C., and counted. The 384-well tissue culture plate was coated overnight at 4° C. with 20 μL anti-human CD3 at 0.05 μg/mL in PBS, which was removed off the plate before 40,000 cells per 40 microliters CD8 T cells with 0.1 μg/mL soluble anti-human CD28 were added to each well. The compounds were transferred using an Echo liquid handler to the cell plate immediately after the cells were plated. After 20 h incubation at 37° C. incubator, 3 microliters per well supernatants transferred into a new 384-well white assay plate for cytokine measurement.
Interferon-γ (IFN-γ) was quantitated using the AlphLISA kit (Cat # AL217) as described by the manufacturer manual (Perkin Elmer). The counts from each well were converted to IFN-γ concentration (pg/mL).

[4] = tested on: Human venous whole blood; assay: Human whole blood IFN-γ assay; assay type: cell-based; settings: human whole blood, read-out: INFg Whole Blood Normalized Agonist EC50;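 further: blood from healthy donors exposed to compound for 1 h before stimulation with anti-CD3 and anti-CD28 at 1 µg/mL each, IFN-γ quantified in supernatant by AlphaLISA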
Protocol: Human Whole Blood IFN-γ Assay
Human venous whole blood (22.5 μL per well), obtained from healthy donors, was pre-treated with compounds for one hour at 37° C. in a humidified 95% air/5% CO2 incubator. The blood was stimulated with 2.5 μL anti-human CD3 and anti-CD28 mAb at a final concentration of 1 μg/mL each for 24 hours at 37° C. IFN-γ in the supernatants was measured using AlphLISA kit (Cat # AL217).

[5] = normalized to 3 μM reference compound with anti-CD3 plus anti-CD28 as 100% activation
[6] = Homo sapiens, T-cell, 20 h, normalized to 3 μM reference compound with anti-CD3 plus anti-CD28 as 100% activation
[7] = Homo sapiens, 24 h, normalized to 3 μM reference compound with anti-CD3 plus anti-CD28 as 100% activation
[8] = Homo sapiens, 24 h, anti-CD3 plus anti-CD28, 24 hours, 3 μM reference compound = 100% activation
[9] = naïve human CD8 T cells, anti-CD3 plus anti-CD28, 3 μM reference compound = 100% activation

C[C@@H]1CN(c2c(Cl)c(=O)n(C)c3ccc(C#N)nc23)[C@@H](C)CN1C(c1ccccc1)c1ccc(F)cc1 (single isomer, unassigned) [Example 218]
IC50 ([1]; liposome (LIPGLO) assay): 9500 nM | IC50 ([2]; liposome (LIPGLO) assay): > 250000 nM | EC50 [3, 5]: 10000 nM | EC50 [4, 5]: 20000 nM

CC(C)Oc1ncccc1C(c1ccc(F)cc1)N1C[C@H](C)N(c2cc(=O)n(C)c3ccc(C#N)nc23)C[C@H]1C (single isomer, unassigned) [Example 207]
IC50 ([1]; liposome (LIPGLO) assay): 71000 nM | IC50 ([2]; liposome (LIPGLO) assay): 3100 nM | EC50 [3, 6]: 430 nM | EC50 [4, 5]: 3500 nM

C[C@@H]1CN(c2cc(=O)n(C)c3ccc(C#N)nc23)[C@@H](C)CN1Cc1ccc(F)cc1F [Example 277, 8-[(2S,5R)-4-[(2,4-difluorophenyl)methyl]-2,5-dimethylpiperazin-1-yl]-5-methyl-6-oxo-5,6-dihydro-1,5-naphthyridine-2-carbonitrile]
IC50 ([1]; liposome (LIPGLO) assay): 250 nM | IC50 ([2]; liposome (LIPGLO) assay): 1500 nM | EC50 [3, 6]: 66 nM | EC50 [4, 7]: 840 nM

C[C@@H]1CN(c2cc(=O)n(C)c3ccc(C#N)nc23)[C@@H](C)CN1C(c1ccc(OC(F)(F)F)cc1)c1cccc(F)n1 (single isomer, unassigned) [Example 368]
IC50 ([1]; liposome (LIPGLO) assay): 1700 nM | IC50 ([2]; liposome (LIPGLO) assay): 2500 nM | EC50 [3, 5]: 10 nM | EC50 [4, 5]: 460 nM

Cc1ccc(C(c2ccc(Cl)cc2)N2CCN(c3c(C#N)c(=O)n(C)c4ccc(C#N)nc34)C[C@H]2C)cc1 (mixture of isomers) [Example 907]
IC50 ([1]; DGKα liposome (LIPGLO) assay): 4400 nM | IC50 ([2]; DGKζ liposome (LIPGLO) assay): 1500 nM | EC50 ([3]; Homo sapiens, T-cell, 20 h, naïve human CD8 T cells, anti-CD3 plus anti-CD28, 3 μM reference compound = 100% activation): 70 nM | EC50 [4, 8]: 730 nM

Cc1cccc(C(c2ccc(Cl)cc2)N2C[C@H](C)N(c3cc(=O)n(C)c4ccc(C#N)nc34)C[C@H]2C)n1 (single isomer, unassigned) [Example 443]
IC50 ([1]; liposome (LIPGLO) assay): 1400 nM | IC50 ([2]; liposome (LIPGLO) assay): 110 nM | EC50 [3, 6]: 94 nM | EC50 [4, 7]: 370 nM

C[C@@H]1CN(c2c(C#N)c(=O)n(C)c3ccc(C#N)nc23)CCN1C(c1ccc(F)cc1)c1ccc(Cl)cn1 (some centres unmarked) [Example 932]
IC50 ([1]; DGKα liposome (LIPGLO) assay): 150 nM | IC50 ([2]; DGKζ liposome (LIPGLO) assay): 1200 nM | EC50 [3, 9]: 52 nM | EC50 [4, 8]: 310 nM

C[C@@H]1CN(c2cc(=O)n(C)c3ccc(C#N)nc23)[C@@H](C)CN1C(c1ccc(F)cc1)c1ccc(Cl)cc1 (stereo partly drawn) [Example 300, 8-[(2S,5R)-4-[(4-chlorophenyl)(4-fluorophenyl)methyl]-2,5-dimethylpiperazin-1-yl]-5-methyl-6-oxo-5,6-dihydro-1,5-naphthyridine-2-carbonitrile]
IC50 ([1]; liposome (LIPGLO) assay): 890 nM | IC50 ([2]; liposome (LIPGLO) assay): 1000 nM | EC50 [3, 6]: 21 nM | EC50 [4, 7]: 120 nM

Cc1ccc(C(c2ccc(Cl)cc2)N2C[C@H](C)N(c3cc(=O)n(C)c4ccc(C#N)nc34)C[C@H]2C)nc1 (single isomer, unassigned) [Example 214]
IC50 ([1]; liposome (LIPGLO) assay): 72 nM | IC50 ([2]; liposome (LIPGLO) assay): 290 nM | EC50 [3, 5]: 120 nM | EC50 [4, 5]: 620 nM

CCOc1ncccc1C(c1ccc(F)cc1)N1C[C@H](C)N(c2cc(=O)n(C)c3ccc(C#N)nc23)C[C@H]1C (single isomer, unassigned) [Example 205]
IC50 ([1]; liposome (LIPGLO) assay): 37000 nM | IC50 ([2]; liposome (LIPGLO) assay): 670 nM | EC50 [3, 5]: 150 nM | EC50 [4, 7]: 990 nM

C[C@@H]1CN(c2cc(=O)n(C)c3ccc(C#N)nc23)[C@@H](C)CN1Cc1c(F)cccc1C(F)(F)F [Example 254, 8-[(2S,5R)-4-{[2-fluoro-6-(trifluoromethyl)phenyl]methyl}-2,5-dimethylpiperazin-1-yl]-5-methyl-6-oxo-5,6-dihydro-1,5-naphthyridine-2-carbonitrile]
IC50 ([1]; liposome (LIPGLO) assay): 140 nM | IC50 ([2]; liposome (LIPGLO) assay): 1600 nM | EC50 [3, 6]: 210 nM | EC50 [4, 7]: 2200 nM

C[C@@H]1CN(c2cc(=O)n(C)c3ccc(C#N)nc23)[C@@H](C)CN1Cc1ccc(F)cc1 [Example 297, 8-[(2S,5R)-4-[(4-fluorophenyl)methyl]-2,5-dimethylpiperazin-1-yl]-5-methyl-6-oxo-5,6-dihydro-1,5-naphthyridine-2-carbonitrile]
IC50 ([1]; liposome (LIPGLO) assay): 15 nM | IC50 ([2]; liposome (LIPGLO) assay): 740 nM | EC50 [3, 6]: 490 nM | EC50 [4, 7]: 1500 nM

C[C@@H]1CN(c2cc(=O)n(C)c3ccc(C#N)nc23)[C@@H](C)CN1Cc1ccccc1O [Example 245, 8-[(2S,5R)-4-[(2-hydroxyphenyl)methyl]-2,5-dimethylpiperazin-1-yl]-5-methyl-6-oxo-5,6-dihydro-1,5-naphthyridine-2-carbonitrile]
IC50 ([1]; liposome (LIPGLO) assay): 8.6 nM | IC50 ([2]; liposome (LIPGLO) assay): 1100 nM | EC50 [3, 6]: 750 nM | EC50 [4, 7]: 5200 nM

CCc1cc(F)ccc1C(c1ccc(Cl)cc1)N1C[C@H](C)N(c2cc(=O)n(C)c3ccc(C#N)nc23)C[C@H]1C (single isomer, unassigned) [Example 226]
IC50 ([1]; liposome (LIPGLO) assay): 67000 nM | IC50 ([2]; liposome (LIPGLO) assay): 1400 nM | EC50 [3, 5]: 67 nM | EC50 [4, 5]: 1700 nM

C[C@@H]1CN(c2cc(=O)n(C)c3ccc(C#N)nc23)[C@@H](C)CN1C(c1ccc(Cl)cc1)c1ccc(F)cn1 (single isomer, unassigned) [Example 191]
IC50 ([1]; liposome (LIPGLO) assay): 200 nM | IC50 ([2]; liposome (LIPGLO) assay): 590 nM | EC50 [3, 6]: 31 nM | EC50 [4, 7]: 430 nM

Cn1c(=O)cc(N2CCN(C(c3ccc(F)cc3)c3ccc(F)cc3)C(C(=O)NC3CC3)C2)c2nc(C#N)ccc21 (single isomer, unassigned) [Example 47, 1-(bis(4-fluorophenyl)methyl)-4-(6-cyano-1-methyl-2-oxo-1,2-dihydro-1,5-naphthyridin-4-yl)-N-cyclopropylpiperazine-2-carboxamide]
IC50 ([1]; liposome (LIPGLO) assay): 260000 nM | IC50 ([2]; liposome (LIPGLO) assay): 5200 nM | EC50 [3, 5]: 10000 nM | EC50 [4, 7]: 5000 nM

C[C@@H]1CN(c2cc(=O)n(C)c3ccc(C#N)nc23)[C@@H](C)CN1Cc1cc(F)ccc1F [Example 262, 8-[(2S,5R)-4-[(2,5-difluorophenyl)methyl]-2,5-dimethylpiperazin-1-yl]-5-methyl-6-oxo-5,6-dihydro-1,5-naphthyridine-2-carbonitrile]
IC50 ([1]; liposome (LIPGLO) assay): 640 nM | IC50 ([2]; liposome (LIPGLO) assay): 2500 nM | EC50 [3, 6]: 310 nM | EC50 [4, 7]: 7100 nM

COc1cc(F)ccc1C(N1C[C@H](C)N(c2cc(=O)n(C)c3ccc(C#N)nc23)C[C@H]1C)C(C)(C)C (single isomer, unassigned) [Example 185]
IC50 ([1]; liposome (LIPGLO) assay): 4400 nM | IC50 ([2]; liposome (LIPGLO) assay): 210 nM | EC50 [3, 6]: 10000 nM | EC50 [4, 5]: 2000 nM

C[C@@H]1CN(c2cc(=O)n(C)c3ccc(C#N)nc23)[C@@H](C)CN1C(c1ccc(F)cc1)c1ccncn1 (single isomer, unassigned) [Example 392]
IC50 ([1]; liposome (LIPGLO) assay): 180 nM | IC50 ([2]; liposome (LIPGLO) assay): 2100 nM | EC50 [3, 6]: 66 nM | EC50 [4, 7]: 330 nM

C[C@@H]1CN(c2cc(=O)n(C)c3ccc(C#N)nc23)[C@@H](C)CN1C(c1ccc(Cl)cc1)c1cccc(F)n1 (single isomer, unassigned) [Example 195]
IC50 ([1]; liposome (LIPGLO) assay): 1100 nM | IC50 ([2]; liposome (LIPGLO) assay): 1100 nM | EC50 [3, 5]: 9.9 nM | EC50 [4, 7]: 1800 nM

COc1cc(CN2C[C@H](C)N(c3cc(=O)n(C)c4ccc(C#N)nc34)C[C@H]2C)cc(C(F)(F)F)n1 [Example 280, 8-[(2S,5R)-4-{[2-methoxy-6-(trifluoromethyl)pyridin-4-yl]methyl}-2,5-dimethylpiperazin-1-yl]-5-methyl-6-oxo-5,6-dihydro-1,5-naphthyridine-2-carbonitrile]
IC50 ([1]; liposome (LIPGLO) assay): 7900 nM | IC50 ([2]; liposome (LIPGLO) assay): 7300 nM | EC50 [3, 6]: 680 nM | EC50 [4, 7]: 7700 nM

C[C@@H]1CN(c2cc(=O)n(C)c3ccc(C#N)nc23)[C@@H](C)CN1C(c1ccc(F)cc1)c1cccc(F)c1 (single isomer, unassigned) [Example 249]
IC50 ([1]; liposome (LIPGLO) assay): 820 nM | IC50 ([2]; liposome (LIPGLO) assay): 440 nM | EC50 [3, 6]: 32 nM | EC50 [4, 7]: 690 nM

CC[C@H]1CN(C(c2ccc(Cl)cc2)c2ccc(F)cn2)[C@H](CC)CN1c1cc(=O)n(C)c2ccc(C#N)nc12 (single isomer, unassigned) [Example 1034]
IC50 ([1]; liposome (LIPGLO) assay): 64 nM | IC50 ([2]; liposome (LIPGLO) assay): 340 nM | EC50 [3, 5]: 17 nM | EC50 [4, 5]: 230 nM

C[C@@H]1CN(c2cc(=O)n(C)c3ccc(C#N)nc23)[C@@H](C)CN1Cc1ccc(F)cc1C(F)F [Example 242, 8-[(2S,5R)-4-{[2-(difluoromethyl)-4-fluorophenyl]methyl}-2,5-dimethylpiperazin-1-yl]-5-methyl-6-oxo-5,6-dihydro-1,5-naphthyridine-2-carbonitrile]
IC50 ([1]; liposome (LIPGLO) assay): 4400 nM | IC50 ([2]; liposome (LIPGLO) assay): 970 nM | EC50 [3, 6]: 170 nM | EC50 ([4]; Homo sapiens, normalized to 3 μM reference compound with anti-CD3 plus anti-CD28 as 100% activation): 1500 nM

C[C@@H]1CN(c2cc(=O)n(C)c3ccc(C#N)nc23)[C@@H](C)CN1C(c1ccc(F)cc1)c1nc(-c2ccc(F)cc2)no1 (single isomer, unassigned) [Example 742]
IC50 ([1]; DGKα liposome (LIPGLO) assay): 150 nM | IC50 ([2]; DGKζ liposome (LIPGLO) assay): 790 nM | EC50 [3, 9]: 1.5 nM | EC50 ([4]; anti-CD3 plus anti-CD28, 24 hours, 3 μM reference compound = 100% activation): 140 nM

CCc1ccc(C(c2cccc(F)c2)N2C[C@H](C)N(c3cc(=O)n(C)c4ccc(C#N)nc34)C[C@H]2C)nc1 (single isomer, unassigned) [Example 351]
IC50 ([1]; liposome (LIPGLO) assay): 640 nM | IC50 ([2]; liposome (LIPGLO) assay): 1300 nM | EC50 [3, 5]: 31 nM | EC50 [4, 5]: 89 nM
